Columns and labels:
[1] = test system: Candida albicans ATCC 10231; assay: Fungicidal activity, serial dilution technique; assay type: cell-based; conditions: average of three ± SD, - means non-active
How it was run: (§1)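 Serial dilution in Mueller–Hinton Broth 2 with an inoculum of 3.0 × 10^5 cfu/mL, 37 °C, read every 24 h for 5 days; three repeats. MIC is the lowest concentration inhibiting visible growth of the test organism.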

[2] = test system: Trichophyton mentagrophytes var. gypseum 1773; assay: Fungicidal activity, serial dilution technique; assay type: cell-based; conditions: Tm; average of three ± SD; - means non-active
How it was run: as §1

S. aureus = assay: Zone-of-inhibition test of coated PC+ plastic sample; assay type: cell-based, Staphylococcus aureus; conditions: PC+ sample immersed 1 min in 1% solution of 12a in ethanol, 37 °C 24 h
Protocol: The inhibition-zone test is a quick and qualitative way to measure the ability of an antimicrobial agent to suppress microbial growth. The sensitivity of the method is quite high and even a small amount of residual biocide in a model system can be detected. […] In this experiment, we used cultures of the bacteria P. aeruginosa and S. aureus. First, the microbial suspension was spread on a sterile agar plate. Then, a plastic sample (PC+), which was preliminarily immersed for 1 min in a 1% solution of compound 12a in ethanol, was placed in the center of the Petri dish with agar. During the incubation period, the inoculum bacteria can only grow where is no antimicrobial agent. If the active agent is washed out of the sample into the environment (in this case, agar), bacterial growth in the area around the sample is suppressed. The width of this area is determined by the diffusion of the active compound in the vicinity. […] From the results obtained, it is clear that a relatively stable surface coating was achieved using a simple experimental procedure.
This sample was tested for possible release of the active compound. Tests were performed on a culture of Gram-negative bacteria P. aeruginosa and Gram-positive bacteria S. aureus. […] Then, Petri dishes were placed in an incubator at 37 °C for 24 h, and the presence of inhibition zones was evaluated.

[3] = test system: Escherichia coli ATCC 25922; assay: Antimicrobial activity, serial dilution technique in Mueller–Hinton Broth 2; assay type: cell-based; conditions: Escherichia coli, ATCC25922, Ec; average of three ± SD; - means non-active; read-out: Minimum Bactericidal and Fungicidal Concentration (MBC, MFC), Ec

With `CCCCCCCCCCCC[P+](C(C)(C)C)(C(C)(C)C)C(C)(C)C` [Compound 12a, tri-tert-butyl(n-dodecyl)phosphonium] as the compound, how does the “Minimum Bactericidal and Fungicidal Concentration (MBC, MFC), Ca” value ([1]; Ca) read?
Its value is 31.3 ± 2.7 µg/mL.

And the MIC ([1]; Candida albicans, ATCC10231, Ca, read-out: Minimum Inhibitory Concentration (MIC), Ca)?
Its MIC is 15.6 ± 1.4 µg/mL.

And the “Minimum Bactericidal and Fungicidal Concentration (MBC, MFC), Tm” value [2]?
Its value is 15.6 ± 1.3 µg/mL.

What about the “Minimum Inhibitory Concentration (MIC), Tm” value [2] of the same compound?
Its value is 15.6 ± 1.2 µg/mL.

And the zone of inhibition (S. aureus)?
The zone of inhibition was “no zones of inhibition”.

And the MBC [3]?
Its MBC is 7.8 ± 0.7 µg/mL.

— PMC8744835, “Sterically Hindered Quaternary Phosphonium Salts (QPSs): Antimicrobial Activity and Hemolytic and Cytotoxic Properties” (International Journal of Molecular Sciences, 2021)
